Results as given in patent US5739131A, “Benzene derivatives and pharmaceutical composition” (Kureha Chemical Industry Co., Ltd., priority 1994, dated 1998).

Key:
[1] = test system: kidney disease model rats; assay: Renal function indicatory value (action to kidney diseases); type: in vivo, Sprague-Dawley female rats; settings: 20 mg/kg/day per os, two weeks; for Creatinine clearance: 24 hours urine, control 0.20; for Creatinine / Urea nitrogen: serum; for Creatinine: control 2.0; for Urea nitrogen: control 100
Description: The kidney disease model rats were prepared as in Example 115. Twenty-five groups (8 rats per group) were sleeked in a manner so that there were no major differences between each group in the serum creatinine value and the urea nitrogen value indicating renal function. The rats in each group were allowed to freely take up feed and water. […] To the rats in the control group, only water was forcedly administered per os every day. After two weeks, 0.2 ml of blood was collected from the carotid artery of the rat under anesthesia, and centrifuged to obtain serum. Using 25 μl of the serum, serum creatinine (Scr) was measured by a creatinine analytical instrument (Beckman). Using 10 μl of the serum, urea nitrogen (BUN) was measured by a BUN analytical instrument (Beckman). Creatinine clearance was evaluated as follows:
After serum creatinine measurement, rats were placed in urinary metabolic cages for 24 hours to collect urine. Urinary creatine concentration (Ucr) was measured by a creatinine analytical instrument, and total volume of urination (Uvol) was also measured. Creatinine clearance (CCr) was calculated by the following formula: [formula]

mice = assay: Acute toxicity, single oral dose; type: in vivo; settings: mouse, in vivo, po, 500 mg/kg
Description: Five-week-old ICR female mice (5 mice per group) were bred for acclimation for a week. Then, the compounds of the present invention were dissolved or dispersed in an aqueous solution of 0.5% methylcellulose, and orally administered to the mice in a single dosage (500 mg/kg).

[2] = test system: kidney disease model rats; assay: Action to survival time of kidney diseased animals; type: in vivo, Sprague-Dawley female rats; settings: 20 mg/kg/day per os, observation eight weeks (upper limit); control 5.0
Description: The kidney disease model rats were prepared as in Example 115. Twenty-five groups (8 rats per group) were prepared in a manner so that there was no major difference between the groups in the serum creatinine value and the urea nitrogen value indicating renal function. The rats in each group were allowed to freely take up feed and water. […] To the rats in the control group, only water was forcedly administered per os every day. If kidney diseases are aggravated, the rat will die of uremia. Thus, the survival time was observed as comprehensive indication of the improvement effect on the kidney diseases. The observation period was eight weeks. Thus if all rats survived, the average survival time is eight weeks and it is an upper limit.

[3] = molecular target: T1, angiotensin II receptor subtype 2 (AT2) (Bos taurus, UniProt G5E6F7); assay: Binding assay, angiotensin II receptor subtype 2 (AT2); parameters: species or system bovine (cerebellar cortex); settings: 100 μM, AT2, bovine cerebellar cortex, 37° C. 1 hour; read-out: Binding inhibition % in 100 μm, AT2
T1 construct: receptor: from cerebellar cortex in bovine; from tissue; host or cells: bovine cerebellar cortex
T1 sequence (G5E6F7 1-362): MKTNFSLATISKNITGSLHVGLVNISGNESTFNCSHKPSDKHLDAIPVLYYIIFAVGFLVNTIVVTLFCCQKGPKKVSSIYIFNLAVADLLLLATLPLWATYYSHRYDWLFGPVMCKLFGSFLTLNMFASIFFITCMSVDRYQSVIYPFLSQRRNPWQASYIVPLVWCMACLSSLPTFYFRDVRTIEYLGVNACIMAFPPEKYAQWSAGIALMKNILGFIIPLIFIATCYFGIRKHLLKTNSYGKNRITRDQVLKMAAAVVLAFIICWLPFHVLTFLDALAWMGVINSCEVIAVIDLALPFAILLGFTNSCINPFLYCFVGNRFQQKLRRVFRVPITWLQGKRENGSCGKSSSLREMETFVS
Description: (§1) In this Example, the affinity to the angiotensin II receptor subtype 1 or subtype 2 was evaluated by a binding assay in accordance with the method described in Biochem. Pharmacol., 33, 4057-4062 (1984).
(§2) Specifically, the measurement of the total binding in the presence of each drug was performed as follows:
(§3) A mixture (final volume=0.25 ml) of a drug in a given concentration (the drug was dissolved in DMSO, and diluted to a double volume with a buffer attached to a drug discovery system to prepare sample for the assay; 0.025 ml), a tracer (0.025 ml), and receptors (0.2 ml) was incubated [in the case of the angiotensin II receptor subtype 1 (AT1), at room temperature for 3 hours, and in the case of the subtype 2 (AT2), at 37° C. for 1 hour]. Then, the reaction mixture was filtered with suction (GF/C filter was used in AT1, and GF/B filter was used in AT2). The filter papers after filtration with suction (the tracer bound to the receptors) were counted by a γ-well counter (ARC-500, Aloka). The non-specific bindings were measured by repeating the above method, except that a large excess amount of a displacer was added. The specific binding of the drug in the given concentration was calculated by subtracting the non-specific binding from the total binding, respectively.
(§4) In AT1 and AT2, the percentages to inhibit the bindings of radioactive ligands (tracer) to receptors by the drugs to be tested (IC50 value of concentration to show 50% inhibition, or binding inhibition % in 100 μM) were measured, using the drugs to be tested and control drugs in the given concentration.
receptor: from cerebellar cortex in bovine
tracer: ^125 ITyr^4angiotensin II
control drug: angiotensin II (human)
(displacer): angiotensin II (human)

[4] = test system: kidney disease model rats; assay: Action to depress blood pressure (tail cuff method); type: in vivo, Sprague-Dawley female rats; settings: 20 mg/kg per os; for Blood pressure: systolic, average, two days from administration, control (water) 203
Description: The compounds of the present invention and the reference substance were forcedly administered per os to kidney disease model rats, and the action to depress blood pressure was observed. The kidney disease model rats were prepared by ligature of branches of renal artery in accordance with the conventional method, that is, the left hilum renalis of Sprague-Dawley female rats was exposed under anesthesia, and one of four secondary branches of renal artery was left unligated, while the remaining three branches were ligated, respectively. After a week, the hilum renalis (artery, vein, and ureter) of the right kidney were further ligated to thereby prepare the rats whose renal function was lowered to approximately 1/8 of the normal function. Each group consisted of eight rats. The drugs to be tested (20 mg/kg) were administered to each administering group, and only water was administered to control group. After two days from the administration, the systolic blood pressure was measured by the tail cuff method using a blood pressure measuring apparatus (UR5000; Ueda).

[5] = molecular target: T2, angiotensin II receptor subtype 1 (AT1) (Oryctolagus cuniculus, UniProt P34976); assay: Binding assay, angiotensin II receptor subtype 1 (AT1); parameters: species or system rabbit (adrenal glands); settings: 100 μM, AT1, rabbit adrenal glands
T2 construct: receptor: from adrenal glands in rabbits; from tissue; host or cells: rabbit adrenal glands
T2 sequence (P34976 1-359): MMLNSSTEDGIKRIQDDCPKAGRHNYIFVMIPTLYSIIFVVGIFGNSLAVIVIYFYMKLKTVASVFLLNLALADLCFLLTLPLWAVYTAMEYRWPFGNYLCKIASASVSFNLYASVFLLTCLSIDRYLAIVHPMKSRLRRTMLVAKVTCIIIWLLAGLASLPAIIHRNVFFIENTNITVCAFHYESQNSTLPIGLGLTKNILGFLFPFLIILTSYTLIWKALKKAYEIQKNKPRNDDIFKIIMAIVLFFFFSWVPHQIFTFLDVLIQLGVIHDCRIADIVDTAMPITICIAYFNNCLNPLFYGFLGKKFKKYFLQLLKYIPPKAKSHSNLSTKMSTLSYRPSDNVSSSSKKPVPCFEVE
Description: as §1, §2, §3, §4

hyperlipemia model rats = settings: cited from earlier work
renal dysfunction = settings: in vivo; cited from earlier work

Compound | Creatinine clearance [1] [mL/min] | Creatinine [1] [mg/dL] | Urea nitrogen [1] [mg/dL] | Number of deaths/number of survivals (mice) | Average survival time [2] [weeks] | inhibition at 100 µM [3] [%] | Blood pressure [4] [mmHg] | inhibition at 100 µM [5] [%] | Blood pressure (hyperlipemia model rats; large dose) | effect to blood pressure (hyperlipemia model rats; lower dose) | kidney disease improvement (hyperlipemia model rats; lower dose) | action to depress the blood pressure ([4]; in comparison with control group) | Blood pressure (renal dysfunction) | progress of renal dysfunction (renal dysfunction)
CCCCCN(C)c1ccc(S(=O)(=O)N2CCOCC2)cc1NCc1ccc(-c2ccccc2-c2nn[nH]n2)cc1 [Compound No. 595, 4-[[4-(N-n-amyl-N-methyl)amino-3-[[2'-(1H-tetrazol-5-yl)biphenyl-4-yl]methyl]aminobenzene]sulfonyl]morpholine] | 0.38 | 1.5 | 73 | 0/5 | 7.6 | 0 | 198 | 41 | – | – | – | – | – | –
CCCCCN(C)c1ccc(S(=O)(=O)N2CCOCC2)cc1NCc1ccc(C(=O)O)cc1 [Compound No. 596, 4-[[4-(N-n-amyl-N-methyl)amino-3-[(4-carboxyphenyl)methyl]aminobenzene]sulfonyl]morpholine] | 0.34 | 1.6 | 78 | 0/5 | 6.0 | 0 | 198 | 22 | – | – | – | – | – | –
CCCCCN(C)c1c(NCc2ccc(C(=O)O)cc2)cc(S(=O)(=O)N2CCOCC2)cc1NC(=O)C(c1ccccc1)c1ccccc1 [Compound No. 598, 4-[[4-(N-n-amyl-N-methyl)amino-3-[(4-carboxylphenyl)methyl]amino-5-(diphenylacetamido)benzene]sulfonyl]morpholine] | 0.35 | 1.6 | 80 | 0/5 | 7.2 | 0 | 202 | 36 | – | – | – | – | – | –
CCCCCN(C)c1c(NCc2ccc(-c3ccccc3-c3nn[nH]n3)cc2)cc(S(=O)(=O)N2CCOCC2)cc1NC(=O)CCc1ccccc1 [Compound No. 599, 4-[[4-(N-n-amyl-N-methyl)amino-3-[[2'-(1H-tetrazol-5-yl)biphenyl-4-yl]methyl]amino-5-(3-phenylpropionamido)benzene]sulfonyl]morpholine] | 0.35 | 1.5 | 73 | 0/5 | 7.0 | 0 | 200 | 38 | – | – | – | – | – | –
CCCCC(=O)N(Cc1ccc(-c2nn[nH]n2)cc1)c1cc(C(=O)N2CCOCC2)ccc1N(C)C [Compound No. 604, 4-dimethylamino-3-N-[[4-(1H-tetrazol-5-yl)phenylmethyl]valeramido]benzoic acid morpholide] | 0.28 | 1.8 | 75 | 0/5 | 7.0 | 0 | 200 | 15 | – | – | – | – | – | –
CCCCc1nc(Cl)c(CO)n1Cc1ccc(-c2ccccc2-c2nnn[nH]2)cc1 [DuP753, 2-butyl-4-chloro-5-(hydroxymethyl)-1-[[2'-(1H-tetrazol-5-yl)biphenyl-4-yl]methyl]imidazole, reference compound] | 0.32 | 1.6 | 80 | – | 6.9 | – | 135 | – | an evident reduction of blood pressure was observed | without practical effect to blood pressure | the kidney disease was improved in a lower dose | clearly showed the action to depress the blood pressure | – | –
C[C@H](CS)C(=O)N1CCC[C@H]1C(=O)O [captoril] | – | – | – | – | – | – | – | – | – | – | – | – | blood pressure is lowered | the progress of renal dysfunction is improved
CCOC(=O)[C@H](CCc1ccccc1)N[C@@H](C)C(=O)N1CCC[C@H]1C(=O)O [enalapril] | – | – | – | – | – | – | – | – | – | – | – | – | blood pressure is lowered | the progress of renal dysfunction is improved
